Measurements: US20050009894A1 (Aventis Pharma S.A., priority 2001, published 2005)

molecular target: T1, human KDR enzyme (Homo sapiens, UniProt P35968); test: Phosphorylation of the substrate PLCγ by the enzyme KDR in vitro (flashplate technique); type: biochemical; conditions: Table VII, degrees of activity by IC50 range; read-out: Activity
T1 construct: The cytoplasmic domain of human KDR enzyme is cloned in the form of a GST fusion; GST; made in house; host or cells: SF21 insect cells (baculovirus, pFastBac)
Description: The inhibitory effect of the compounds is determined in a test of phosphorylation of a substrate by the enzyme KDR in vitro by the flasplate technique (96-well plate, NEN). The cytoplasmic domain of human KDR enzyme is cloned in the form of a GST fusion into the baculovirus expression vector pFastBac. The protein is expressed in the SF21 cells and purified to about 60% homogeneity.
The kinase activity of KDR is measured in 20 mM MOPS, 10 mM MgCl2, 10 mM MnCl2, 1 mM DTT, 2.5 mM EGTA, 10 mM β-glycerophosphate, pH 7.2 in the presence of 10 mM MgCl2, 100 μM Na3VO4, 1 mM NaF. 10 μl of the compound are added to 70 μl of kinase buffer containing 100 ng of KDR enzyme at 4° C. The reaction is initiated by adding 20 μl of solution containing 2 μg of substrate (fragment SH2-SH3 of PLCγ expressed in the form of a GST fusion protein), 2 μCi γ33P[ATP] and 2 μM cold ATP. After incubating for 1 h at 37° C., the reaction is quenched by adding 1 volume (100 μl) of 200 mM EDTA. The incubation buffer is removed and the wells are washed three times with 300 μl of PBS. The radioactivity is measured in each well using a Top Count NXT instrument (Packard).
Background noise is determined by measuring the radio-activity in wells in quadruplet containing radioactive ATP and the substrate alone.
An activity control is measured in wells in quadruplet containing all the reagents (γ33P-[ATP], KDR and the substrate PLCγ) and in the absence of compound.
The inhibition of the KDR activity with the compound of the invention is expressed as a percentage of inhibition of the control activity determined in the absence of compound.
The compound SU5614 (Calbiochem) (1 μM) is included in each plate as inhibition control.
The IC50 values for the compounds are calculated by plotting the dose-response curves. The IC50 corresponds to the concentration of compound that induces a 50% inhibition of the kinase activity.

T1 sequence (P35968 786-1356 limits assumed): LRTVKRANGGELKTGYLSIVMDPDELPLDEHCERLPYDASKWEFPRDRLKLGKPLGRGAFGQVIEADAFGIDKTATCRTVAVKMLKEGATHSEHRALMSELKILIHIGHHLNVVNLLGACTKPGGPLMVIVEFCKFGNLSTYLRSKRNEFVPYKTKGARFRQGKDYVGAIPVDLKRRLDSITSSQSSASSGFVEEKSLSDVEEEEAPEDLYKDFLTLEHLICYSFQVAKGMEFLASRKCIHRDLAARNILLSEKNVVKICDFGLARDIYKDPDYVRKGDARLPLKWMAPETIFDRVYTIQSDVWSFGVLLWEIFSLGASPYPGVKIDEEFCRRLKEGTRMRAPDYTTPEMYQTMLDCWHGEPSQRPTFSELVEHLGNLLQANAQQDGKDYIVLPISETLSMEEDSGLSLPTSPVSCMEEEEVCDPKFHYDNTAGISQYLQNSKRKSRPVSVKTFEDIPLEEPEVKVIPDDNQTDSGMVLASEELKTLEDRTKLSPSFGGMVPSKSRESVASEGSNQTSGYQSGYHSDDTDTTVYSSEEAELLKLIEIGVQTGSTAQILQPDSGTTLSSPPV

`O=C(NCc1ccccc1OC(F)(F)F)c1ccc2[nH]c(-c3n[nH]c4ccccc34)nc2c1` [Example 44, 2-(1H-Indazol-3-yl)-1H-benzoimidazole-5-carboxylic acid 2-trifluoromethoxy-benzylamide] and `O=C(NCc1ccccc1C(F)(F)F)c1ccc2[nH]c(-c3n[nH]c4ccccc34)nc2c1` [Example 47, 2-(1H-Indazol-3-yl)-1H-benzoimidazole-5-carboxylic acid 2-trifluoromethyl-benzylamide] fall in the same range of IC50: 300 to 3000 nM for the first, 300 to 3000 nM for the second.

`Cc1ccccc1CNC(=O)c1ccc2[nH]c(-c3n[nH]c4ccccc34)nc2c1` [Example 45, 2-(1H-Indazol-3-yl)-1H-benzoimidazole-5-carboxylic acid 2-methyl-benzylamide] and `CSc1ccccc1CNC(=O)c1ccc2[nH]c(-c3n[nH]c4ccccc34)nc2c1` [Example 62, 2-(1H-Indazol-3-yl)-1H-benzoimidazole-5-carboxylic acid 2-methylsulfanyl-benzylamide] cannot be ordered by IC50: under 300 nM for the first, under 300 nM for the second.

`Cc1ccsc1CNC(=O)c1ccc2[nH]c(-c3n[nH]c4ccccc34)nc2c1` [Example 46, 2-(1H-Indazol-3-yl)-1H-benzoimidazole-5-carboxylic acid (3-methyl-thiophen-2-ylmethyl)-amide] and `O=C(NCc1ccsc1)c1ccc2[nH]c(-c3n[nH]c4ccccc34)nc2c1` [Example 68, 2-(1H-Indazol-3-yl)-1H-benzoimidazole-5-carboxylic acid (thiophen-3-ylmethyl)-amide] fall in the same range of IC50: 300 to 3000 nM for the first, 300 to 3000 nM for the second.

`O=C(NCc1ccc(Oc2ccccc2)cc1)c1ccc2[nH]c(-c3n[nH]c4ccccc34)nc2c1` [Example 48, 2-(1H-Indazol-3-yl)-1H-benzoimidazole-5-carboxylic acid 4-phenoxy-benzylamide] and `N#Cc1ccc(CNC(=O)c2ccc3[nH]c(-c4n[nH]c5ccccc45)nc3c2)cc1` [Example 59, 2-(1H-Indazol-3-yl)-1H-benzoimidazole-5-carboxylic acid 4-cyano-benzylamide] fall in the same range of IC50: 300 to 3000 nM for the first, 300 to 3000 nM for the second.

Compared with `O=C(NCc1cccc(OC(F)(F)F)c1)c1ccc2[nH]c(-c3n[nH]c4ccccc34)nc2c1` [Example 49, 2-(1H-Indazol-3-yl)-1H-benzoimidazole-5-carboxylic acid 3-trifluoromethoxy-benzylamide], `O=C(NCc1cccc(C(F)(F)F)c1)c1ccc2[nH]c(-c3n[nH]c4ccccc34)nc2c1` [Example 61, 2-(1H-Indazol-3-yl)-1H-benzoimidazole-5-carboxylic acid 3-trifluoromethyl-benzylamide] is higher in IC50: 300 to 3000 nM for the first, over 3000 nM for the second. The first is the more potent here.

`CC(C)OCCCNC(=O)c1ccc2[nH]c(-c3n[nH]c4ccccc34)nc2c1` [Example 50, 2-(1H-Indazol-3-yl)-1H-benzoimidazole-5-carboxylic acid (3-isopropoxy-propyl)-amide] and `CC(=O)Nc1cccc(OCCCNC(=O)c2ccc3[nH]c(-c4n[nH]c5ccccc45)nc3c2)c1` [Example 55, 2-(1H-Indazol-3-yl)-1H-benzoimidazole-5-carboxylic acid [3-(3-acetylamino-phenoxy)-propyl]-amide] fall in the same range of IC50: 300 to 3000 nM for the first, 300 to 3000 nM for the second.

`Cn1cc(CNC(=O)c2ccc3[nH]c(-c4n[nH]c5ccccc45)nc3c2)cn1` [Example 51, 2-(1H-Indazol-3-yl)-1H-benzoimidazole-5-carboxylic acid (1-methyl-1H-pyrazol-4-ylmethyl)-amide] and `O=C(NCc1ccoc1)c1ccc2[nH]c(-c3n[nH]c4ccccc34)nc2c1` [Example 66, 2-(1H-Indazol-3-yl)-1H-benzoimidazole-5-carboxylic acid (furan-3-ylmethyl)-amide] fall in the same range of IC50: 300 to 3000 nM for the first, 300 to 3000 nM for the second.

Compared with `CC(C)c1ccc(CNC(=O)c2ccc3[nH]c(-c4n[nH]c5ccccc45)nc3c2)cc1` [Example 52, 2-(1H-Indazol-3-yl)-1H-benzoimidazole-5-carboxylic acid 4-isopropyl-benzylamide], `O=C(NCc1ccc(Cl)nc1)c1ccc2[nH]c(-c3n[nH]c4ccccc34)nc2c1` [Example 56, 2-(1H-Indazol-3-yl)-1H-benzoimidazole-5-carboxylic acid (6-chloro-pyridin-3-ylmethyl)-amide] is lower in IC50: 300 to 3000 nM for the first, under 300 nM for the second. The second is the more potent here.

`Cc1cc(CNC(=O)c2ccc3[nH]c(-c4n[nH]c5ccccc45)nc3c2)c(C)o1` [Example 53, 2-(1H-Indazol-3-yl)-1H-benzoimidazole-5-carboxylic acid (2,5-dimethyl-furan-3-ylmethyl)-amide] and `Cc1cc(C)cc(CNC(=O)c2ccc3[nH]c(-c4n[nH]c5ccccc45)nc3c2)c1` [Example 69, 2-(1H-Indazol-3-yl)-1H-benzoimidazole-5-carboxylic acid 3,5-dimethyl-benzylamide] fall in the same range of IC50: 300 to 3000 nM for the first, 300 to 3000 nM for the second.

First: O=C(NCc1cc2ccccc2s1)c1ccc2[nH]c(-c3n[nH]c4ccccc34)nc2c1 [Example 54, 2-(1H-Indazol-3-yl)-1H-benzoimidazole-5-carboxylic acid (benzo[b]thiophen-2-ylmethyl)-amide]
Second: O=C(NCc1csc2ccccc12)c1ccc2[nH]c(-c3n[nH]c4ccccc34)nc2c1 [Example 63, 2-(1H-Indazol-3-yl)-1H-benzoimidazole-5-carboxylic acid (benzo[b]thiophen-3-ylmethyl)-amide]
The IC50 of the first is higher: 300 to 3000 nM for the first, under 300 nM for the second. The second is the more potent here.

First: O=C(NCc1ccc(-c2cccs2)s1)c1ccc2[nH]c(-c3n[nH]c4ccccc34)nc2c1 [Example 57, 2-(1H-Indazol-3-yl)-1H-benzoimidazole-5-carboxylic acid ([2,2′]bithiophenyl-5-ylmethyl)-amide]
Second: Cc1cccc(CNC(=O)c2ccc3[nH]c(-c4n[nH]c5ccccc45)nc3c2)c1 [Example 71, 2-(1H-Indazol-3-yl)-1H-benzoimidazole-5-carboxylic acid 3-methyl-benzylamide]
The IC50 of the first is higher: 300 to 3000 nM for the first, under 300 nM for the second. The second is the more potent here.

Going from `O=C(NCc1ccc2c(c1)CCO2)c1ccc2[nH]c(-c3n[nH]c4ccccc34)nc2c1` [Example 58, 2-(1H-Indazol-3-yl)-1H-benzoimidazole-5-carboxylic acid (2,3-dihydro-benzofuran-5-ylmethyl)-amide] to `O=C(NCc1csc2ccc(Cl)cc12)c1ccc2[nH]c(-c3n[nH]c4ccccc34)nc2c1` [Example 60, 2-(1H-Indazol-3-yl)-1H-benzoimidazole-5-carboxylic acid (5-chloro-benzo[b]thiophen-3-ylmethyl)-amide], the IC50 rises from under 300 nM to over 3000 nM.

`O=C(NCC1CCOCC1)c1ccc2[nH]c(-c3n[nH]c4ccccc34)nc2c1` [Example 64, 2-(1H-Indazol-3-yl)-1H-benzoimidazole-5-carboxylic acid (tetrahydro-pyran-4-ylmethyl)-amide] and `O=C(NCC1COc2ccccc2O1)c1ccc2[nH]c(-c3n[nH]c4ccccc34)nc2c1` (stereo not shown) [Example 65, 2-(1H-Indazol-3-yl)-1H-benzoimidazole-5-carboxylic acid (2,3-dihydro-benzo[1,4]dioxin-2-ylmethyl)-amide] fall in the same range of IC50: 300 to 3000 nM for the first, 300 to 3000 nM for the second.

`O=C(NCc1ccccc1[N+](=O)[O-])c1ccc2[nH]c(-c3n[nH]c4ccccc34)nc2c1` [Example 67, 2-(1H-Indazol-3-yl)-1H-benzoimidazole-5-carboxylic acid 2-nitro-benzylamide] and `Cn1c(CNC(=O)c2ccc3[nH]c(-c4n[nH]c5ccccc45)nc3c2)nc2ccccc21` [Example 70, 2-(1H-Indazol-3-yl)-1H-benzoimidazole-5-carboxylic acid (1-methyl-1H-benzoimidazol-2-ylmethyl)-amide] fall in the same range of IC50: 300 to 3000 nM for the first, 300 to 3000 nM for the second.
